In patent US7179825B2, “Retinoic acid mimetic anilides” (Janssen Pharmaceutica N.V., priority 1997, dated 2007):

What was measured:
[1] = system: metabolism of retinoic acid in human breast cancer cells; test: Inhibition of retinoic acid (RA) metabolism (Example C.1); assay type: cell-based; settings: MCF-7 human breast cancer cells, 3H-RA as substrate, concentration needed to reduce the amount of metabolites to 50% of the control
From the text: The property to delay the metabolism of retinoic acid can be evidenced in various in vitro and in vivo experiments. A particular in vitro procedure is described in example C.1 and tests the inhibitory activity of the compounds of formula (I) on the metabolism of retinoic acid in human breast cancer cells. The compounds of the present invention were also effective in suppressing induced vaginal keratinization effects in ovariectomized rats as is described in example C.2.
Inhibition of Retinoic Acid (RA) Metabolism
MCF-7 human breast cancer cells were grown as stock cultures according to art-known protocols. One day before the experiment, RA is added to the stock cultures to stimulate RA-metabolism. At the start of the experiment, cell suspensions were incubated in a tissue culture medium containing ^3H-RA as the substrate. Different concentrations of the test compound (dissolved in 1% DMSO) were added to the incubation mixtures, and at the end of the incubation, the unmetabolized RA is separated from its polar metabolites. The fraction containing the polar ^3H-labelled metabolites was collected and counted in a scintillation counter. For each experiment, a control and a blank incubation were run in parallel. Table 22 list the IC50 value (defined as the concentration in M needed to reduce the amount of metabolites to 50% of the control).

Ovariectomized rats = test: Vaginal keratinization test on ovariectomized rats (Example C.2); assay type: in vivo; settings: estradiol undecylate induced keratinization, per os once daily on days 1-3, active dose = 50% of rats show complete suppression
How it was run: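 Ovariectomized rats given s.c. estradiol undecylate (100 μg per 100 g body weight in sesame oil), then oral compound once daily on days 1-3 (vehicle PEG 200). Vaginas assessed histologically one day after last dose; lowest active dose (mg/kg) is the dose giving complete keratinization suppression in 50% of rats.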

Structure (SMILES) | IC50 [1] [nM] | LAD (lowest active dose) (Ovariectomized rats) [mg/kg] | IC50 ([1]; MCF7) [nM]
CCC(CC)C(c1ccc(NC(=O)C(O)c2ccc(C)c(C)c2)cc1)n1cncn1 (mixture of isomers) [Compound 11] | 2.63 | >2.50 | 
CCC(CC)C(c1ccc(NC(=O)C2COc3ccccc3O2)cc1)n1ccnc1 (mixture of isomers) [Compound 23] | 0.503 | 2.50 | 
CCC(CC)C(c1ccc(NC(=O)CC2COc3ccccc3O2)cc1)n1ccnc1 (mixture of isomers) [Compound 26] | 0.201 | 5.00 | 
CCC(CC)C(c1ccc(NC(=O)C2COc3ccccc3C2)cc1)n1ccnc1 (mixture of isomers) [Compound 33] | 1.01 | 5.00 | 
CC(C=Cc1ccccc1)C(=O)Nc1ccc(C(C(C)C)n2ccnc2)cc1 (mixture of isomers) [Compound 165] | 10.8 | >20.00 | 
CC(C(=O)Nc1ccc(C(C(C)C)n2ccnc2)cc1)=C(c1ccccc1)c1cccnc1 (mixture of isomers) [Compound 171] | 85.8 | >10.00 | 
CC1C(C(=O)Nc2ccc(C(C(C)C)n3ccnc3)cc2)=Cc2ccccc21 (mixture of isomers) [Compound 180] | 56.9 | >10.00 | 
CC(C)C(c1ccc(NC(=O)C2CC2C)cc1)n1ccnc1 (mixture of isomers) [Compound 197] | 5.61 | >10.00 | 
CC(C)C(c1ccc(NC(=O)C2CC2c2ccccc2)cc1)n1ccnc1.O=C(O)C(=O)O (mixture of isomers) [Compound 204] | 4.58 | >10.00 | 
CC(C)C(c1ccc(NC(=O)C2COc3ccccc3C2)cc1)n1ccnc1 (mixture of isomers) [Compound 253] | 5.55 | >5.00 | 
CC(CC#N)C(c1ccc(NC(=O)Cc2ccc(Cl)cc2)cc1)n1ccnc1 (mixture of isomers) [Compound 371] | 3.59 | 10.00 | 
CCC(C)C(c1ccc(NC(=O)C(C)=Cc2ccccc2)cc1)n1ccnc1 (mixture of isomers) [Compound 480] | 4.25 | 10.00 | 
CCCCC(CC)C(c1ccc(NC(=O)C(C)=Cc2ccccc2)cc1)n1ccnc1 (mixture of isomers) [Compound 493] | 8.77 | >2.50 | 
O=C(C=C(c1ccccc1)C1CCCCC1)Nc1ccc(C(c2ccc(Cl)cc2)n2ccnc2)cc1 (mixture of isomers) [Compound 514] | > 1000 | >20.00 | 
CC(C)C(=CC(=O)Nc1ccc(C(c2ccc(Cl)cc2)n2ccnc2)cc1)c1ccccc1 (mixture of isomers) [Compound 515] | > 1000 | >20.00 | 
CC(C(=O)Nc1ccc(C(C(C)C)n2ccnc2)cc1)=C(c1ccccc1)c1ccsc1 (mixture of isomers) [Compound 518] | > 100 | >10.00 | 
CCCC(=C(C)C(=O)Nc1ccc(C(C(C)C)n2ccnc2)cc1)c1ccccc1 (mixture of isomers) [Compound 519] | 3.8 | >10.00 | 
CCC(C)C(c1ccc(NC(=O)Cc2ccc(OC)c(OC)c2)cc1)n1cncn1 (mixture of isomers) [Compound 640] | 2.17 | >2.50 | 
CC(C)C(c1ccc(NC(=O)C(c2ccccc2)C2CCCC2)cc1)n1ccnc1 (mixture of isomers) [Compound 659] | > 100 | >10.00 | 
CCC(C(=O)Nc1ccc(C(C(C)C)n2ccnc2)cc1)c1ccccc1 (mixture of isomers) [Compound 660] | 6.37 | >10.00 | 
CC(C)C(c1ccc(NC(=O)C(c2ccccc2)C2CCCCC2)cc1)n1ccnc1 (mixture of isomers) [Compound 661] | 34 | >10.00 | 
COC(C(=O)Nc1ccc(C(C(C)C)n2ccnc2)cc1)c1ccccc1 (mixture of isomers) [Compound 670] | 5.72 | >2.50 | 
CCC(CC)C(c1ccc(NC(=O)/C(C)=C/c2ccccc2)cc1)n1cncn1 (racemic) [Compound 2] | 0.03 | 5.00 | 
CCC(CC)C(c1ccc(NC(=O)Cc2ccc3c(c2)OCO3)cc1)n1cncn1 (racemic) [Compound 5] | 0.27 | >2.50 | 

Structure (SMILES) | IC50 [1] [nM] | LAD (lowest active dose) (Ovariectomized rats) [mg/kg] | IC50 ([1]; MCF7) [nM]
CCC(CC)C(c1ccc(NC(=O)c2ccc(OC)c(OC)c2)cc1)n1cncn1 (racemic) [Compound 6] | 1.65 | 2.50 | 
CCC(CC)C(c1ccc(NC(=O)Cc2ccc3c(c2)OCCO3)cc1)n1cncn1 (racemic) [Compound 7] | 0.79 | >2.50 | 
CCC(CC)C(c1ccc(NC(=O)CCc2ccc(OC)c(OC)c2)cc1)n1cncn1 (racemic) [Compound 10] | 1.55 | 2.50 | 
CCC(CC)C(c1ccc(NC(=O)C(O)c2ccc(Cl)cc2)cc1)n1cncn1 (racemic) [Compound 18, (±)-(A2)-4-chloro-N-[4-[2-ethyl)-1-(1H-1,2,4-triazol-1-yl)butyl]phenyl]-α-hydroxybenzeneacetamide] | 0.872 | 2.50 | 
CCC(CC)C(c1ccc(NC(=O)c2ccccc2)cc1)n1ccnc1 (racemic) [Compound 22] | 1.04 | 2.50 | 
CCC(CC)C(c1ccc(NC(=O)C(C)(C)O)cc1)n1ccnc1 (racemic) [Compound 24] | 1.37 | 2.50 | 
CCC(CC)C(c1ccc(NC(=O)C2=COc3ccccc3O2)cc1)n1ccnc1 (racemic) [Compound 25] | 61 | 10.00 | 
CCC(CC)C(c1ccc(NC(=O)c2cnccn2)cc1)n1ccnc1 (racemic) [Compound 27] | 0.232 | 5.00 | 
CCC(CC)C(c1ccc(NC(=O)Cc2ccc3c(c2)OCO3)cc1)n1ccnc1 (racemic) [Compound 28] | 2.76 | 2.50 | 
CCC(CC)C(c1ccc(NC(=O)c2ccc3c(c2)C(C)(C)CCC3(C)C)cc1)n1ccnc1 (racemic) [Compound 30] | 25.8 | >5.00 | 
CCC(CC)C(c1ccc(NC(=O)C2=Cc3ccccc3OC2)cc1)n1ccnc1 (racemic) [Compound 31] | 2.63 | 5.00 | 
CCC(CC)C(c1ccc(NC(=O)CCc2ccc(OC)c(OC)c2)cc1)n1ccnc1 (racemic) [Compound 32] | 0.697 | 5.00 | 
CCOc1ccc(C(=O)Nc2ccc(C(C(CC)CC)n3ccnc3)cc2)cc1 (racemic) [Compound 35] | 2.24 | 2.50 | 
CCCCCC(C)C(c1ccc(NC(=O)/C(C)=C/c2ccccc2)cc1)n1ccnc1 (single isomer, unassigned) [Compound 488] | > 100 |  | 
CCC(CC)C(c1ccc(NC(C)=O)cc1)n1cncn1 (stereo not shown) [Compound 1] | 0.138 |  | 
CCC(CC)C(c1ccc(NC(=O)C(O)c2ccc(Cl)cc2)cc1)n1ccnc1 (stereo not shown) [Compound 54] | 4.86 |  | 
CC(C)C(c1ccc(NC(=O)Cc2ccc(N)cc2)cc1)n1ccnc1 (stereo not shown) [Compound 145, (A)-4-amino-N-[4-[1-(1H-imidazol-1-yl)-2-methylpropyl]phenyl]benzeneacetamide] | 3.03 |  | 
CC(C)C(c1ccc(NC(=O)Cc2ccc(N=[N+]=[N-])c(I)c2)cc1)n1ccnc1 (stereo not shown) [Compound 259, (B)-4-azido-N-[4-[1-(1H-imidazol-1-yl)-2-methylpropyl]phenyl]-3-iodobenzenacetamide] | 9.29 |  | 
CC(=O)Nc1ccc(C(c2cccc(F)c2)n2cncn2)cc1 (stereo not shown) [Compound 616] | > 1000 |  | 
C/C(=C\c1ccccc1)C(=O)Nc1ccc(C(c2cccc(F)c2)n2cncn2)cc1 (stereo not shown) [Compound 620] | > 1000 |  | 
CC(C)C(c1ccc(NC(=O)Nc2cccc(F)c2)cc1)c1ccccn1 (stereo not shown) [Compound 691] | > 100 |  | 
CC(C)C(c1ccc(NC(=N)Nc2cccc(F)c2)cc1)n1ccnc1 (stereo not shown) [Compound 744, N′-(3-fluorophenyl)-N-[4-[1-(1H-imidazol-1-yl)-2-methylpropyl]phenyl]guanidine] |  |  | > 100
CCC(CC)C(c1ccc(NC(=O)Cc2cccc(O)c2)cc1)n1ccnc1 (stereo not shown) [Compound 780, (A)-N-[4-[2-ethyl-1-(1H-imidazol-1-yl)butyl]phenyl]-3-hydroxybenzeneacetamide ethanedioate (1:1)] | 4.57 |  | 
CCC(CC)C(c1ccc(NC(=O)Cc2cccc(O)c2)cc1)n1ccnc1 (stereo not shown) [Compound 781, (B)-N-[4-[2-ethyl-1-(1H-imidazol-1-yl)butyl]phenyl]-3-hydroxy-benzeneacetamide ethanedioate (1:1)] | 3.24 |  | 
